In patent publication US4710505A, “Asymmetric heterocyclic ester derivatives of 1,4-dihydropyridine-3,5-dicarboxylic acids” (Societe de Recherches Industrielles (S.O.R.I.), priority 1985, dated 1987):
Read-outs that look alike come from different tables or passages of the source.

Legend:
rabbit aorta = test: Relaxing effect on isolated rabbit aorta contracted (depolarized) by KCl; conditions: Oryctolagus cuniculus; rabbit aorta depolarized by 127 mM KCl; read-out: ED50 (dose causing a 50% relaxation of the precontracted arteries)
Method: I. RELAXING EFFECT ON ISOLATED RABBIT AORTA CONTRACTED BY KCl
The thoracic aortae of male rabbits are removed, cut into narrow strips and placed under tension in an oxygenated survival medium. The contractions of these arteries, the amplitude of which is measured using a myograph, are induced by a 127 mM solution of KCl [R. Towart et al., Arzneim.-Forsch./Drug Res. 32, 338-346 (1982)]. The compounds studied are dissolved in a mixture of anhydrous ethanol and double distilled water (1:1) v/v, the percentage of ethanol in the baths being less than or equal to 0.3% at the end of the experiment. When the contraction plateau is reached, the compound is added to the medium in increasing doses every 15 minutes.

[1] = system: spontaneously hypertensive rats; test: Antihypertensive activity in spontaneously hypertensive rats, oral administration; assay type: in vivo; conditions: 30 mg/kg; for change in vivo at 30 mg/kg: Rattus norvegicus
Method: Spontaneously hypertensive rats aged between 16 and 20 weeks are used. The systolic pressure is measured by plethysmography and the heart rate is obtained from the pressure graph. The compounds studied are administered orally.

[2] = system: spontaneously hypertensive rats; test: Antihypertensive activity in spontaneously hypertensive rats, intravenous administration; assay type: in vivo
Text: 2. Intravenous administration
Spontaneously hypertensive rats aged between 16 and 20 weeks are used. They are anesthetized with diethyl ether, a cannula is inserted into the caudal artery to measure the arterial pressure and a catheter is inserted into the right jugular vein to administer the compounds as described previously (L. S. Watson and L. T. Ludden, New Antihypertensive Drugs, pages 87-96, Spectrum Publication, Inc., 1976).
Each curve C relates to the control group receiving only the vehicle and each curve T relates to the treated group [n (number of animals per group)=4-7]. The said groups are compared either by analysis of variance, if the variances are homogenous (Bartlett's homocedasticity test), or by Kruskall-Wallis's non-parametric test (the statistically significant results being represented as follows:
FIGS. 1-6 relate to the variation in systolic pressure, expressed in mm Hg (1 mm Hg corresponds approximately to 1.333×10^2 Pa), as a function of time, expressed in minutes, and FIGS. 1a-6a relate to the variation in diastolic pressure, also expressed in mm Hg, as a function of time, expressed in minutes, for the treated groups (curves T) compared with the corresponding control groups (curves C), the doses of products administered being as follows:
FIGS. 2 and 2a: nicardipine at 30 μg/kg i.v.,
FIGS. 3 and 3a: Example 2 at 30 μg/kg i.v.,
FIGS. 4 and 4a: Example 7 at 100 μg/kg i.v.,
FIGS. 5 and 5a: Example 8 at 300 μg/kg i.v., and
FIGS. 6 and 6a: Example 11 at 30 and 100 μg/kg i.v. (curves T1 and T2).

anesthetized dogs = test: Hemodynamic effects on anesthetized dogs, intraduodenal administration; assay type: in vivo, Mongrel dogs; conditions: 0.5 mg/kg
Method: III. HEMODYNAMIC EFFECTS ON ANESTHETIZED DOGS Mongrel dogs are anesthetized with pentobarbital sodium (25 mg/kg i.v.). Each animal is placed under artificial respiration and a catheter is introduced into the aorta to measure the arterial pressure. The outputs of the aorta (O. Aor.), right femoral artery (O. Fem.) and left coronary artery (descending part) (O. Cor.) are measured continuously by means of electromagnetic rings. The total peripheral resistances (T.P.R.) are also calculated. […]

in vivo = conditions: rat, intravenous, male Wistar rats weighing 300 g
Method: The LD50 was determined by intravenous administration to male Wistar rats weighing 300 g.

[3] = versus nicardipine and nifedipine

Question: For `COC(=O)C1=C(C)NC(C)=C(C(=O)OCC2COC3(CCCCC3)O2)C1c1cccc([N+](=O)[O-])c1` (centres unmarked) [Example 2, methyl (1,4-dioxaspiro[4,5]decan-2-yl)methyl 1,4-dihydro-2,6-dimethyl-4-(3-nitrophenyl)pyridine-3,5-dicarboxylate], which EC50 (rabbit aorta) is on record?
Answer: The EC50 was 50 nM.

Question: What about the “duration of the effect, Systolic pressure” value [1] of the same compound?
Answer: Its value is greater than 24 h.

Question: And the change in vivo at 30 mg/kg ([1]; read-out: % variation Heart rate)?
Answer: Its change in vivo at 30 mg/kg is 24.5%.

Question: And the change in vivo at 30 mg/kg ([1]; read-out: % variation Systolic pressure)?
Answer: Its change in vivo at 30 mg/kg is -45.4 ± 6.3%.

Question: What about the “drop in systolic and diastolic pressures (in words)” value ([2]; 30 μg/kg i.v., versus nicardipine 30 μg/kg and nifedipine 300 μg/kg i.v.) of the same compound?
Answer: Its value is “greater drop in systolic and diastolic pressures than nicardipine at the same dose and nifedipine at 10 times the dose”.

Question: What about the “duration of the antihypertensive effect (in words)” value ([2]; single i.v. dose, Ex. 2 30, Ex. 7 100, Ex. 8 300, Ex. 11 30 and 100 μg/kg, versus nicardipine and nifedipine) of the same compound?
Answer: The value was “notably longer than that of nicardipine and nifedipine”.

Question: What about the “% variation D.P. (diastolic pressure)” value (anesthetized dogs) of the same compound?
Answer: Its value is -41.2%.

Question: And the “% variation O. Aor. (output of the aorta)” value (anesthetized dogs)?
Answer: Its value is “+40.2%”.

Question: And the “% variation O. Cor. (output of left coronary artery)” value (anesthetized dogs)?
Answer: The value was “+89.5%”.

Question: And the “% variation O. Fem. (output of right femoral artery)” value (anesthetized dogs)?
Answer: The value was “+180.5%”.

Question: And the “duration of the effect, D.P. (diastolic pressure)” value (anesthetized dogs)?
Answer: The value was 240 min.

Question: What about the “duration of the effect, O. Aor. (output of the aorta)” value (anesthetized dogs) of the same compound?
Answer: Its value is 300 min.

Question: And the “duration of the effect, O. Cor. (output of left coronary artery)” value (anesthetized dogs)?
Answer: Its value is 300 min.

Question: What about the “duration of the effect, O. Fem. (output of right femoral artery)” value (anesthetized dogs) of the same compound?
Answer: Its value is 300 min.

Question: And the “% variation T.P.R. (total peripheral resistances)” value (anesthetized dogs; calculated)?
Answer: Its value is -53.4%.

Question: What about the “duration of the effect, T.P.R. (total peripheral resistances)” value (anesthetized dogs; calculated) of the same compound?
Answer: The value was 300 min.

Question: And the “cardiac, femoral and coronary outputs (in words)” value (anesthetized dogs; [3])?
Answer: The value was “increased for a longer time and to a greater extent”.

Question: And the “drop in total peripheral resistances (in words)” value (anesthetized dogs; [3])?
Answer: The value was “greater drop in total peripheral resistances than nicardipine and nifedipine”.

Question: What about the “duration of drop in total peripheral resistances (in words)” value (anesthetized dogs; [3]) of the same compound?
Answer: Its value is “considerably longer”.

Question: And the LD50 (in vivo)?
Answer: The LD50 was 27.9 mg/kg.
